Values after ≈ are worked out from the molar mass of the structure shown.
Assays:
[1] = Binding affinity to full length Mycobacterium tuberculosis ClpC1 assessed as dissociation constant by SPR analysis
[2] = tested on: Mycobacterium avium; assay: Antimycobacterial activity against Mycobacterium avium assessed as reduction in bacterial growth; assay type: functional
[3] = Cytotoxicity against African green monkey Vero cells; assay type: toxicity, cell-based; settings: African green monkey (Chlorocebus sabaeus)
[4] = Selectivity index, ratio of IC50 for cytotoxicity against African green monkey Vero cells to MIC for antimycobacterial activity against Mycobacterium tuberculosis H37Rv ATCC 27294; assay type: toxicity, cell-based; settings: read-out: Selectivity Index
[5] = tested on: Mycobacteroides abscessus; assay: Antimycobacterial activity against Mycobacterium abscessus ATCC 19977 assessed as reduction in bacterial growth by microplate Alamar blue assay; assay type: functional
[6] = tested on: Mycobacterium tuberculosis; assay: Antimycobacterial activity against Mycobacterium tuberculosis H37Rv ATCC 27294 assessed as reduction in bacterial growth by microplate alamar blue assay; assay type: functional
[7] = Binding affinity to N-terminal Mycobacterium tuberculosis ClpC1 assessed as dissociation constant by SPR analysis

Compound	Kd [1] [nM]	MIC [2] [µM]	IC50 [3] [nM]	selectivity ratio [4]	MIC [5] [µM]	MIC [6] [µM]	Kd [7] [nM]
C/C=C/C[C@@H]1NC(=O)[C@H](CC(C)C)N2C=C(C)C[C@@H](C2=O)N(C)C(=O)[C@H](C)NC(=O)[C@H](Cc2ccc(OC(=O)c3ccccc3)c([N+](=O)[O-])c2)NC(=O)[C@H](CC(C)C)N(C)C(=O)[C@H](Cc2cn(C(C)(C)[C@@H](CCl)OC(=O)c3ccccc3)c3ccccc23)NC1=O	1100	> 10	> 100000	> 220	> 10	0.45 (≈ 0.571 µg/mL)	1400
C/C=C/C[C@@H]1NC(=O)[C@H](CC(C)C)N2C=C(C)C[C@@H](C2=O)N(C)C(=O)[C@H](C)NC(=O)[C@H](Cc2ccc(O)c(NC(=O)CCl)c2)NC(=O)[C@H](CC(C)C)N(C)C(=O)[C@H](Cc2cn(C(C)(C)[C@H](O)CCl)c3ccccc23)NC1=O	310	> 10	> 100000	> 1000	2.2 (≈ 2.44 µg/mL)	0.098 (≈ 0.109 µg/mL)	220
C/C=C/C[C@@H]1NC(=O)[C@H](CC(C)C)N2C=C(C)C[C@@H](C2=O)N(C)C(=O)[C@H](C)NC(=O)[C@H](Cc2ccc3oc(=O)[nH]c3c2)NC(=O)[C@H](CC(C)C)N(C)C(=O)[C@H](Cc2cn(C(C)(C)[C@H](O)CCl)c3ccccc23)NC1=O	510	> 10	> 100000	> 830	2.3 (≈ 2.43 µg/mL)	0.12 (≈ 0.127 µg/mL)	430
C/C=C/C[C@@H]1NC(=O)[C@H](CC(C)C)N2C(=O)[C@H](CC(C)[C@H]2OC)N(C)C(=O)[C@H](C)NC(=O)[C@H](Cc2ccc(O)c([N+](=O)[O-])c2)NC(=O)[C@H](CC(C)C)N(C)C(=O)[C@H](Cc2cn(C(C)(C)[C@H](O)COC)c3ccccc23)NC1=O (stereo partly specified)	72	0.4 (≈ 0.435 µg/mL)	> 100000	> 13000	0.11 (≈ 0.12 µg/mL)	0.008 (≈ 0.00871 µg/mL)	75
C/C=C/C[C@@H]1NC(=O)[C@H](CC(C)C)N2C(=O)[C@H](C[C@@H](C)[C@H]2OCC)N(C)C(=O)[C@H](C)NC(=O)[C@H](Cc2ccc(O)c([N+](=O)[O-])c2)NC(=O)[C@H](CC(C)C)N(C)C(=O)[C@H](Cc2cn(C(C)(C)[C@H](O)CCl)c3ccccc23)NC1=O	140	> 10	> 10000	> 42	1.1 (≈ 1.22 µg/mL)	0.24 (≈ 0.266 µg/mL)	120
C/C=C/C[C@@H]1NC(=O)[C@H](CC(C)C)N2C(=O)[C@H](C[C@@H](C)[C@@H]2OCCCC)N(C)C(=O)[C@H](C)NC(=O)[C@H](Cc2ccc(O)c([N+](=O)[O-])c2)NC(=O)[C@H](CC(C)C)N(C)C(=O)[C@H](Cc2cn(C(C)(C)[C@H](O)CCl)c3ccccc23)NC1=O	720	> 10	95000	120	9.4 (≈ 10.7 µg/mL)	0.77 (≈ 0.874 µg/mL)	600
C/C=C/C[C@@H]1NC(=O)[C@H](CC(C)C)N2C=C(C)C[C@@H](C2=O)N(C)C(=O)[C@H](C)NC(=O)[C@H](Cc2ccc(O)c([N+](=O)[O-])c2)NC(=O)[C@H](CC(C)C)N(C)C(=O)[C@H](Cc2cn(C(C)(C)[C@H]3CO3)c3ccccc23)NC1=O	60	4.1 (≈ 4.2 µg/mL)	> 100000	> 33000	0.58 (≈ 0.594 µg/mL)	0.003 (≈ 0.00307 µg/mL)	50
C/C=C/C[C@@H]1NC(=O)[C@H](CC(C)C)N2C=C(C)C[C@@H](C2=O)N(C)C(=O)[C@H](C)NC(=O)[C@H](Cc2ccc(O)c([N+](=O)[O-])c2)NC(=O)[C@H](CC(C)C)N(C)C(=O)[C@H](Cc2cn(C(C)(C)[C@H](O)CBr)c3ccccc23)NC1=O	350	1.1 (≈ 1.22 µg/mL)	> 100000	> 32000	0.57 (≈ 0.63 µg/mL)	0.003 (≈ 0.00332 µg/mL)	260

Reference: ChEMBL document CHEMBL6177961, “Structure-Based Analysis of Semisynthetic Anti-TB Rufomycin Analogues” (J Nat Prod, 2025)
